Data reported in EPA's ToxValDB 9.5.
Several values for one entry are separate records, joined by “and”; a condition that tells them apart may be missing. Equal entries are not always repeated.

Tests used:
Mus musculus = conditions: oral, drinking water
[1] = subchronic, duration: 3 months, oral, drinking water, M/F, Sprague-Dawley, Morris water maze (escape time, acquisition, day 1) + Morris water maze (escape time, acquisition, day 5)
[2] = subchronic, duration: 3 months, oral, drinking water, M/F, Sprague-Dawley, Morris water maze (escape time, acquisition, day 6)
[3] = subchronic, duration: 12 weeks, oral, drinking water, M, Sprague-Dawley, territorial aggression (ventral presenting posture events of stud male)
[4] = subchronic, duration: 30 days, oral, drinking water, M, Wistar, active avoidance (shuttle box, number of avoidances of conditioned shock stimulus)
[5] = short-term, duration: 28 days, M, BALB/c, activity cage (locomotion events, 60 min) + Morris water maze (escape time, acquisition, day 5) + Morris water maze (platform crossing, …
[6] = short-term, duration: 28 days, M, BALB/c, elevated plus maze (time in open arms) + forced swim (immobility time, last 4 min) + forced swim (immobility time, total 6 min)
[7] = subchronic, duration: 8 weeks, M, Kunming, Y-maze (number of training runs to meet 90% learning standard)
[8] = subchronic, duration: 8 weeks, M, Kunming, open field (grid entry, 3 minutes)
[9] = subchronic, duration: 10 weeks, ICR, Y-maze (number of training runs to meet 90% learning standard)
[10] = subchronic, duration: 30 days, F, Swiss Albino, rotarod (latency to fall, 25 rpm)
[11] = subchronic, duration: 64 days, M, C57BL/6, formalin test (flinches, early phase, 10 min) + formalin test (flinches, late phase, 60 min) + formalin test (flinches/10 min, 60 min) + …

Structure (SMILES): [F-].[Na+] [Sodium fluoride]
- LOEL (Rattus norvegicus; short-term, duration: 14 days, injection, intraperitoneal, M, Wistar, rotarod (endurance time)): 9.05 mg/kg-day
- LOEL (Rattus norvegicus; [1]): 1.36 mg/kg-day
- NOEL (Rattus norvegicus; [1]): 0.68 mg/kg-day
- LOEL (Rattus norvegicus; [2]): 3.27 mg/kg-day
- NOEL (Rattus norvegicus; [2]): 0.33 mg/kg-day
- NOEL (Rattus norvegicus; subchronic, duration: 3 months, oral, drinking water, M/F, Sprague-Dawley, Morris water maze (platform crossing, probe test, day 7) + Morris water maze (time in target quadrant, probe test, day 7)): 3.27 mg/kg-day
- LOEL (Rattus norvegicus; subchronic, duration: 3 months, oral, drinking water, M/F, Wistar, passive avoidance (step-down test, time to move from rubber mat to electrified bar, session 2, day 30) + passive avoidance (step-down test, …): 5.84 mg/kg-day
- LOEL (Rattus norvegicus; subchronic, duration: 3 months, oral, drinking water, M, Sprague-Dawley, Morris water maze (escape time, acquisition, day 1) + Morris water maze (escape time, acquisition, day 11) + Morris water maze (escape time…): 7.52 mg/kg-day
- NOEL (Rattus norvegicus; subchronic, duration: 3 months, oral, drinking water, M, Wistar, Morris water maze (entries into target quadrant, probe test, day 4) + Morris water maze (escape time, acquisition, day 2) + Morris water …): 3.34 mg/kg-day
- LOEL (Rattus norvegicus; subchronic, duration: 3 months, oral, gavage, M/F, Sprague-Dawley, Morris water maze (escape time, acquisition day 1) + Morris water maze (escape time, acquisition, day 5)): 9.05 mg/kg-day
- NOEL (Rattus norvegicus; subchronic, duration: 3 months, oral, gavage, M, Albino, open field (ambulation distance) + open field (ambulation time) + open field (immobility time) + open field, stereotypic events + open field…): 9.05 mg/kg-day
- LOEL (Rattus norvegicus; subchronic, duration: 3 months, oral, gavage, M, Albino, open field (squares crossed)): 4.52 mg/kg-day
- LOEL (Rattus norvegicus; subchronic, duration: 3 months, oral, gavage, M, Wistar, Y-maze (number of training runs to meet 90% learning standard, day 23) + Y-maze (number of training runs to meet 90% learning standard, day …): 6.67 mg/kg-day
- NOEL (Rattus norvegicus; subchronic, duration: 12 weeks, oral, drinking water, M, Sprague-Dawley, sexual behavior (ejaculation latency) + territorial aggression (fights with stud male)): 18.8 mg/kg-day
- LOEL (Rattus norvegicus; subchronic, duration: 12 weeks, oral, drinking water, M, Sprague-Dawley, sexual behavior (intromission latency) + sexual behavior (post-ejaculatory interval) + sexual behavior (time to first mount) + sexual …): 6.27 mg/kg-day
- LOEL (Rattus norvegicus; [3]): 18.8 mg/kg-day
- NOEL (Rattus norvegicus; [3]): 6.27 mg/kg-day
- NOEL (Rattus norvegicus; subchronic, duration: 12 weeks, oral, gavage, Wistar, open field (ambulation distance, 12 wks) + open field (ambulation distance, 3 wks) + open field (ambulation events, 12 wks) + open field (…): 2.3 mg/kg-day
- NOEL (Rattus norvegicus; subchronic, duration: 30 days, oral, drinking water, M/F, Wistar, activity cage (ambulatory events) + activity cage (head turning events) + activity cage (head turning time) + activity cage (rearing events…): 10.4 mg/kg-day
- LOEL (Rattus norvegicus; subchronic, duration: 30 days, oral, drinking water, M/F, Wistar, activity cage (ambulatory time) + activity cage (rearing time) + activity cage (sitting events) + activity cage (sitting time) + activity …): 10.4 mg/kg-day
- NOEL (Rattus norvegicus; subchronic, duration: 30 days, oral, drinking water, M, Wistar, T-maze (number of errors, retention phase)): 40 mg/kg-day
- LOEL (Rattus norvegicus; subchronic, duration: 30 days, oral, drinking water, M, Wistar, T-maze (number of sessions to reach learning criterion)): 40 mg/kg-day
- LOEL (Rattus norvegicus; [4]): 4.87 mg/kg-day
- NOEL (Rattus norvegicus; [4]): 2.33 mg/kg-day
- NOEL (Rattus norvegicus; subchronic, duration: 30 days, oral, drinking water, M, Wistar, active avoidance (shuttle box, number of escapes of conditioned shock stimulus) + active avoidance (shuttle box, number of failures to avoid…): 4.87 mg/kg-day
- LOEL (Rattus norvegicus; subchronic, duration: 30 days, oral, drinking water, M, Wistar, dental fluorosis_0 degrees + dental fluorosis_1 degree + open field (squares crossed, test session)): 2.33 mg/kg-day
- NOEL (Rattus norvegicus; subchronic, duration: 30 days, oral, drinking water, M, Wistar, open field (squares crossed, day 1 - minute 1) + open field (squares crossed, day 1 - minute 2) + open field (squares crossed, day 1) + open…): 6.67 mg/kg-day
- NOEL (Rattus norvegicus; subchronic, duration: 30 days, oral, drinking water, M, Wistar, passive avoidance (exploration, number of crossings) + passive avoidance (exploration, time in small compartment)): 14.8 mg/kg-day
- LOEL (Rattus norvegicus; subchronic, duration: 30 days, oral, drinking water, M, Wistar, passive avoidance (retention, number of crossings) + passive avoidance (retention, time in small compartment) + T-maze (exploratory activity…): 14.8 mg/kg-day
- LOEL (Rattus norvegicus; subchronic, duration: 30 days, oral, drinking water, M, Wistar, passive avoidance (retention, time in small compartment) + T-maze (exploratory activity) + T-maze (number of correct choices) + T-maze (…): 14.8 mg/kg-day
- LOEL (mg% thigh bone) (Rattus norvegicus; subchronic, duration: 30 days, oral, gavage, motor activity (spontaneous) + orienting reflex): 10.6
- LOEL (Rattus norvegicus; subchronic, duration: 60 days, oral, drinking water, F, Wistar, activity cage (exploratory motor activity events) + rotarod (latency to fall, 14 rpm)): 111 mg/kg-day
- LOEL (Rattus norvegicus; subchronic, duration: 60 days, oral, drinking water, F, Wistar, activity cage (motor activity events) + rotarod (latency to fall, 14 rpm)): 1.94 mg/L serum
- LOEL (Rattus norvegicus; subchronic, duration: 60 days, oral, drinking water, Wistar, passive avoidance (retention, latency)): 1.8 mg/kg-day
- LOEL (Rattus norvegicus; subchronic, duration: 60 days, oral, gavage, F, Wistar, activity cage (ambulation events)): 9.05 mg/kg-day
- NOEL (Rattus norvegicus; subchronic, duration: 60 days, oral, gavage, F, Wistar, rotarod (latency to fall, 14 rpm)): 18.1 mg/kg-day
- NOEL (Mus musculus; developmental, M, Kunming, generation: F1, F1: activity chamber (ambulation events) + F1: activity chamber (rearing events) + F1: novel object test (adaptation phase memory index) + …): 18.4 mg/kg-day
- LOEL (Mus musculus; developmental, M, NMRI, generation: F1, F1: maze test (completion time, assessment 1) + F1: maze test (completion time, assessment 2)): 0.113 mg/day
- NOEL (Mus musculus; short-term, duration: 28 days, M, BALB/c, activity cage (locomotion events, 10 min) + activity cage (rearing events, 10 min) + activity cage (rearing events, 60 min) + elevated plus …): 1.16 mg/kg-day
- LOEL (Mus musculus; [5]): 0.58 mg/kg-day
- NOEL (Mus musculus; [5]): 0.23 mg/kg-day
- LOEL (Mus musculus; [6]): 1.16 mg/kg-day
- NOEL (Mus musculus; [6]): 0.58 mg/kg-day
- NOEL (Mus musculus; subchronic, duration: 8 weeks, M, Kunming, Y-maze (% of correct responses 24 hrs after mastering learning standard)): 1.16 mg/kg-day
- LOEL (Mus musculus; [7]): 0.58 mg/kg-day and 0.7 mg/kg-day
- NOEL (Mus musculus; [7]): 0.12 mg/kg-day and 0.35 mg/kg-day
- NOEL (Mus musculus; subchronic, duration: 8 weeks, M, Kunming, open field (grid entry, 1 minute) + open field (rearing events) + open field (standing against wall events) + Y-maze (percent correct …): 1.39 mg/kg-day
- LOEL (Mus musculus; [8]): 1.39 mg/kg-day
- NOEL (Mus musculus; [8]): 0.7 mg/kg-day
- NOEL (Mus musculus; subchronic, duration: 10 weeks, ICR, Y-maze (% of correct responses 24 hrs after mastering learning standard)): 1.19 mg/kg-day
- LOEL (Mus musculus; [9]): 1.19 mg/kg-day
- NOEL (Mus musculus; [9]): 0.59 mg/kg-day
- NOEL (Mus musculus; subchronic, duration: 30 days, F, Swiss Albino, elevated plus maze (time to move from open to closed arm, trial 1) + open field (fecal matter) + open field (grooming time) + open field (…): 24.5 mg/kg-day
- LOEL (Mus musculus; subchronic, duration: 30 days, F, Swiss Albino, elevated plus maze (time to move from open to closed arm, trial 2) + forced swim (immobility time) + motor coordination (akinesia, latency …): 12.3 mg/kg-day
- LOEL (Mus musculus; subchronic, duration: 30 days, F, Swiss Albino, maze test (latency) + motor coordination (akinesia, latency time) + motor coordination (catalepsy, latency time) + swim test (total swim …): 14.7 mg/kg-day
- LOEL (Mus musculus; [10]): 24.5 mg/kg-day
- NOEL (Mus musculus; [10]): 12.3 mg/kg-day
- LOEL (Mus musculus; subchronic, duration: 64 days, M, C57BL/6, Von Frey hairs test (relative frequency of paw withdrawal)): 5.79 mg/kg-day
- LOEL (Mus musculus; [11]): 11.6 mg/kg-day
- NOEL (Mus musculus; [11]): 5.79 mg/kg-day
- NOEL (Mus musculus; subchronic, duration: 64 days, M, C57BL/6, formalin test (licking time, late phase, 60 min) + formalin test (licking time/10 min, 60 min) + open field (total distance moved, 1 hr) + …): 11.6 mg/kg-day
